# In patent publication US7579504B2, “ABCA1 elevating compounds” (Gilead Sciences, Inc., priority 2005, dated 2009):
# Test system: ABCA1 mRNA
# Experiment: ABCA1 mRNA induction in THP-1 cells, QuantiGene branched DNA assay
# Type: cell-based
# Settings: Homo sapiens, 18-20 hours, read-out: ABCA1 Induction Fold Increase over DMSO Vehicle
# Protocol: Modulation of expression of ABCA1 mRNA levels by the compounds of the invention was determined in the following assays.
# Induction of ABC1 in THP-1 cells, was measured using QuantiGene® branched DNA assay as per manufacturer's instructions. Cultures of THP-1 were grown to subconfluence in DMEM/10% FBS before replacement with DMEM/BSA and 10 and 3 μM concentrations of the test compounds in DMSO for 18-20 hours. After treatment of cells with compounds, the cells were lysed with lysis buffer at 37° C. for 20 minutes. The cell lysate and ABCA1 specific probe (Genospectra, Inc., Fremont, Calif.) mix were added to the 96 well capture plate and hybridized at 53° C. for 16-18 hours. The signal was amplified using the amplifier and label probes provided with the QuantiGene® assay followed by addition of a luminescent alkaline phosphatase substrate, dioxitane. Luminescence was quantified in Victor V plate reader.
# Step 1 • Cells are lysed to release mRNA in the presence of target probes. Target mRNA from lysed cells was then captured by hybridization and transferred to the Capture Plate.
# Step 2 • Signal amplification was performed by hybridization of the bDNA Amplifier and Label Probe.
# Step 3 • Addition of chemiluminescence substrate yielded a QuantiGene® signal proportional to the amount of mRNA present in the sample.
# Table 1 presents the relative fold increase in ABCA1 expression over DMSO for compounds of the invention when tested at a concentration of 10 μM.
row,SMILES,fold induction at 10 µM
1,"Cc1ccc(CNC(=O)[C@H]2CC[C@H](CN(Cc3ccccc3C)S(=O)(=O)c3ccccc3)CC2)cc1 [Compound 1, N-[(4-methylphenyl)methyl][4-({[(2-methylphenyl)methyl](phenylsulfonyl)amino}methyl)cyclohexyl]carboxamide]",4.2
2,"Cc1ccc(CNC(=O)C2CCC(CN(Cc3cccc(F)c3F)S(=O)(=O)c3ccccc3)CC2)cc1 (stereo not drawn) [Compound 2, [4-({[(2,3-difluorophenyl)methyl](phenylsulfonyl)amino}methyl)cyclohexyl]-N-[(4-methylphenyl)methyl]carboxamide]",6.3
3,"Cc1ccc(CNC(=O)C2CCC(CN(Cc3ccc(F)cc3)S(=O)(=O)c3ccccc3)CC2)cc1 (stereo not drawn) [Compound 3, [4-({[(4-fluorophenyl)methyl](phenylsulfonyl)amino}methyl)cyclohexyl]-N-[(4-methylphenyl)methyl]carboxamide]",4.8
4,"Cc1ccc(CNC(=O)C2CCC(CN(Cc3ccccc3)S(=O)(=O)c3ccccc3)CC2)cc1 (stereo not drawn) [Compound 4, N-[(4-methylphenyl)methyl](4-{[benzyl(phenylsulfonyl)amino]methyl}cyclohexyl)carboxamide]",3.8
5,"Cc1ccc(CNC(=O)C2CCC(CN([C@H](C)c3ccccc3)S(=O)(=O)c3ccccc3)CC2)cc1 (stereo partly drawn) [Compound 5, (4-{[((1R)-1-phenylethyl)(phenylsulfonyl)amino]methyl}cyclohexyl)-N-[(4-methylphenyl)methyl]carboxamide]",6.4
6,"Cc1ccc(CNC(=O)[C@H]2CC[C@H](CN([C@@H](C)c3ccccc3)S(=O)(=O)c3ccccc3)CC2)cc1 [Compound 6, (4-{[((1S)-1-phenylethyl)(phenylsulfonyl)amino]methyl}cyclohexyl)-N-[(4-methylphenyl)methyl]carboxamide]",3.2
7,"COc1cccc(S(=O)(=O)N(Cc2ccccc2)CC2CCC(C(=O)NCc3ccc(C)cc3)CC2)c1 (stereo not drawn) [Compound 7, [4-({[(3-methoxyphenyl)sulfonyl]benzylamino}methyl)cyclohexyl]-N-[(4-methylphenyl)methyl]carboxamide]",5.4
8,"CC(=O)Nc1ccc(S(=O)(=O)N(Cc2ccccc2)CC2CCC(C(=O)NCc3ccc(C)cc3)CC2)cc1 (stereo not drawn) [Compound 8, N-[4-({[(4-{N-[(4-methylphenyl)methyl]carbamoyl}cyclohexyl)methyl]benzylamino}sulfonyl)phenyl]acetamide]",3.1
9,"Cc1ccc(CNC(=O)C2CCC(CN(Cc3ccccc3)S(=O)(=O)c3ccccc3C)CC2)cc1 (stereo not drawn) [Compound 9, N-[(4-methylphenyl)methyl][4-({[(2-methylphenyl)sulfonyl]benzylamino}methyl)cyclohexyl]carboxamide]",4.9
10,"Cc1ccc(CNC(=O)C2CCC(CN(Cc3ccccc3)S(=O)(=O)c3ccc(F)cc3F)CC2)cc1 (stereo not drawn) [Compound 10, [4-({[(2,4-difluorophenyl)sulfonyl]benzylamino}methyl)cyclohexyl]-N-[(4-methylphenyl)methyl]carboxamide]",2.2
11,"Cc1ccc(CNC(=O)C2CCC(CN(Cc3ccccc3)S(=O)(=O)c3ccc(Cl)cc3F)CC2)cc1 (stereo not drawn) [Compound 11, [4-({[(4-chloro-2-fluorophenyl)sulfonyl]benzylamino}methyl)cyclohexyl]-N-[(4-methylphenyl)methyl]carboxamide]",1.9
12,"Cc1ccc(CNC(=O)C2CCC(CN(Cc3ccccc3)S(=O)(=O)c3ccc(F)c(F)c3)CC2)cc1 (stereo not drawn) [Compound 12, [4-({[(3,4-difluorophenyl)sulfonyl]benzylamino}methyl)cyclohexyl]-N-[(4-methylphenyl)methyl]carboxamide]",2.6
13,"Cc1ccc(CNC(=O)C2CCC(CN(Cc3ccccc3)S(=O)(=O)c3ccc(C(C)(C)C)cc3)CC2)cc1 (stereo not drawn) [Compound 13, {4-[({[4-(tert-butyl)phenyl]sulfonyl}benzylamino)methyl]cyclohexyl}-N-[(4-methylphenyl)methyl]carboxamide]",2.7
14,"Cc1ccc(CNC(=O)C2CCC(CN(Cc3ccccc3)S(=O)(=O)c3ccc(Cl)cc3Cl)CC2)cc1 (stereo not drawn) [Compound 14, [4-({[(2,4-dichlorophenyl)sulfonyl]benzylamino}methyl)cyclohexyl]-N-[(4-methylphenyl)methyl]carboxamide]",3.5
15,"Cc1ccc(CNC(=O)C2CCC(CN(Cc3ccccc3)S(=O)(=O)c3cccs3)CC2)cc1 (stereo not drawn) [Compound 15, N-[(4-methylphenyl)methyl](4-{[benzyl(2-thienylsulfonyl)amino]methyl}cyclohexyl)carboxamide]",4.3
16,"Cc1ccc(CNC(=O)C2CCC(CN(Cc3ccccc3)S(=O)(=O)c3ccc(F)c(F)c3F)CC2)cc1 (stereo not drawn) [Compound 16, N-[(4-methylphenyl)methyl][4-({benzyl[(2,3,4-trifluorophenyl)sulfonyl]amino}methyl)cyclohexyl]carboxamide]",1.9
17,"Cc1ccc(CNC(=O)C2CCC(CN(Cc3ccccc3)S(=O)(=O)c3cc(F)cc(F)c3)CC2)cc1 (stereo not drawn) [Compound 17, [4-({[(3,5-difluorophenyl)sulfonyl]benzylamino}methyl)cyclohexyl]-N-[(4-methylphenyl)methyl]carboxamide]",4.5
18,"COc1ccc(S(=O)(=O)N(Cc2ccccc2)CC2CCC(C(=O)NCc3ccc(C)cc3)CC2)cc1OC (stereo not drawn) [Compound 18, [4-({[(3,4-dimethoxyphenyl)sulfonyl]benzylamino}methyl)cyclohexyl]-N-[(4-methylphenyl)methyl]carboxamide]",1.6
19,"Cc1ccc(CNC(=O)C2CCC(CN(Cc3ccccc3)S(=O)(=O)c3cc(F)ccc3F)CC2)cc1 (stereo not drawn) [Compound 19, [4-({[(2,5-difluorophenyl)sulfonyl]benzylamino}methyl)cyclohexyl]-N-[(4-methylphenyl)methyl]carboxamide]",4.9
20,"Cc1ccc(CNC(=O)C2CCC(CN(Cc3ccccc3)S(=O)(=O)c3cccc(Cl)c3)CC2)cc1 (stereo not drawn) [Compound 20, [4-({[(3-chlorophenyl)sulfonyl]benzylamino}methyl)cyclohexyl]-N-[(4-methylphenyl)methyl]carboxamide]",4.3
21,"Cc1ccc(CNC(=O)C2CCC(CN(Cc3ccccc3)S(=O)(=O)c3ccccc3F)CC2)cc1 (stereo not drawn) [Compound 21, [4-({[(2-fluorophenyl)sulfonyl]benzylamino}methyl)cyclohexyl]-N-[(4-methylphenyl)methyl]carboxamide]",4.4
22,"Cc1ccc(CNC(=O)C2CCC(CN(Cc3ccccc3)S(=O)(=O)c3ccccc3Cl)CC2)cc1 (stereo not drawn) [Compound 22, [4-({[(2-chlorophenyl)sulfonyl]benzylamino}methyl)cyclohexyl]-N-[(4-methylphenyl)methyl]carboxamide]",4.1
23,"Cc1ccc(CNC(=O)C2CCC(CN(Cc3ccccc3)S(=O)(=O)c3cc(C)cc(C)c3)CC2)cc1 (stereo not drawn) [Compound 23, [4-({[(3,5-dimethylphenyl)sulfonyl]benzylamino}methyl)cyclohexyl]-N-[(4-methylphenyl)methyl]carboxamide]",4.1
24,"Cc1ccc(CNC(=O)C2CCC(CN(Cc3ccccc3)S(=O)(=O)c3cc(C(F)(F)F)cc(C(F)(F)F)c3)CC2)cc1 (stereo not drawn) [Compound 24, {4-[({[3,5-bis(trifluoromethyl)phenyl]sulfonyl}benzylamino)methyl]cyclohexyl}-N-[(4-methylphenyl)methyl]carboxamide]",0.9
